Data on 5 compounds can be found in ChEMBL document CHEMBL1201862, “PubChem BioAssay data set” (2004).

Assay [1] addresses T1, Fatty acid synthase (Homo sapiens, UniProt P49327). Put plainly: inhibition of human FAS-TE enzyme activity – biochemical, endpoint fluorescence intensity, uHTS hits, dose response (AID 624327).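 Note: fluorescence from hydrolysis of an O-methyl fluorescein acyl ester substrate by the enzyme.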 Format: functional.
In assay [2] the target is T2, Protein RecA (Mycobacterium tuberculosis, UniProt P9WHJ3).
T2 sequence (P9WHJ3 whole entry): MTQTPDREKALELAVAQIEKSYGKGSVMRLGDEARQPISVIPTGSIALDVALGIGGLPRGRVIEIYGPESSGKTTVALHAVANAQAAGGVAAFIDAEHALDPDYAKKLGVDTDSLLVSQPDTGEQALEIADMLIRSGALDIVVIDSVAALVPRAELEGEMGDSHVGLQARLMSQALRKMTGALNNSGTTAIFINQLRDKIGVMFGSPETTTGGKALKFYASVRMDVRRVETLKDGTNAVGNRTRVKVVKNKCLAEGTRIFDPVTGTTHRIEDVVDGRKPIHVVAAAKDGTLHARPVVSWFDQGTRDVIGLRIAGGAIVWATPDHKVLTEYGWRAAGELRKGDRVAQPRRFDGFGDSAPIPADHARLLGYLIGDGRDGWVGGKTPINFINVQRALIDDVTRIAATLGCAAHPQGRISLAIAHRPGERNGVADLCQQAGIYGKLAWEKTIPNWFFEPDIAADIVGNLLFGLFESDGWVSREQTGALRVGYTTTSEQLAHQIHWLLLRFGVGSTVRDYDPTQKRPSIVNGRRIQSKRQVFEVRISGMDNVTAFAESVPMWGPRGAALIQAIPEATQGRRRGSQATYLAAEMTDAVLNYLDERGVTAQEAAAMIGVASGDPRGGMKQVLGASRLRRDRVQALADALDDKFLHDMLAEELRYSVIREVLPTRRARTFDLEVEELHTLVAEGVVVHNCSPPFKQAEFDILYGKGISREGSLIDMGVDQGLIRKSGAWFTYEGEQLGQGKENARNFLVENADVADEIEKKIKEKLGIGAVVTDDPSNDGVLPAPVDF
Kind of assay: Fluorescence Cell-Free Homogeneous Dose Retest to Identify Inhibitors of RecA-Intein Splicing Activity. [Related pubchem assays (depositor defined):AID2097, AID2223, AID489010, AID492950]. The format is functional.

The target in assay [3] is T1, Fatty acid synthase. Kind of assay: inhibition of human FAS-TE enzyme activity – biochemical, kinetic fluorescence intensity, dose response (AID 624326).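 Note: rate of fluorescence rise from hydrolysis of a fluorogenic O-methyl fluorescein ester substrate.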 Format: functional.
The nature of assay [4]: Intein inhibitors as potential Tuberculosis drugs, a cytotoxicity screen. [Related pubchem assays (depositor defined):AID2221, AID2223, AID434968, AID435010, AID449749, AID449750, AID489010]. Format: functional.
Assay [5] has as its target T3, Replicative DNA helicase DnaB (Mycobacterium tuberculosis, UniProt P9WMR3).
T3 sequence (P9WMR3 whole entry): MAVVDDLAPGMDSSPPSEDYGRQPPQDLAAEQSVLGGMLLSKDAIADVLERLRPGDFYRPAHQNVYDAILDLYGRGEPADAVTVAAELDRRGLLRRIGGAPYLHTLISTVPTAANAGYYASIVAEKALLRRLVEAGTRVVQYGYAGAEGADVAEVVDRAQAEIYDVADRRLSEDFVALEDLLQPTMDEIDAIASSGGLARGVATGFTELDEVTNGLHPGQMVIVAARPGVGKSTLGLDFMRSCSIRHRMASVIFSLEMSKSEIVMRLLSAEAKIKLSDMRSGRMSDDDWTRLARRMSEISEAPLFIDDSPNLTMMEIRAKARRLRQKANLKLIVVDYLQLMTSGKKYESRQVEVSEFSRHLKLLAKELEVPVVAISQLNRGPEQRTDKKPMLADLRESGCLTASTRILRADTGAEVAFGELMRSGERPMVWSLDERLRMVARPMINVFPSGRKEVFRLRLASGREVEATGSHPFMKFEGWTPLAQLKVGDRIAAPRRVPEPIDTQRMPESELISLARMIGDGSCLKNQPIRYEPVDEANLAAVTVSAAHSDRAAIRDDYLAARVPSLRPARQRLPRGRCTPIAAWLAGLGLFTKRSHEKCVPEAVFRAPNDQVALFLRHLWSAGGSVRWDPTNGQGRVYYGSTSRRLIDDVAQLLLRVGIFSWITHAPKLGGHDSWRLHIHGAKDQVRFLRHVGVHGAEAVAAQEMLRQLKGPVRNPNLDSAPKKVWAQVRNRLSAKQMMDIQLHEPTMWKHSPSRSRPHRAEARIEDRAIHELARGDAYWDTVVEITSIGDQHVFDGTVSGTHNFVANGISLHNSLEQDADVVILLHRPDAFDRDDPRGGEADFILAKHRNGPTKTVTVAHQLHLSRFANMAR
Kind of assay: DnaB intein splicing inhibitors, dose response, biochemical, cell-free fluorescence (AID 449749). Format: functional.

Assay [6] can be described thus: Luminescence Cell-Based Dose Retest to Confirm Inhibitors of Cancer Stem Cells. [Related pubchem assays (depositor defined):AID2717, AID2721]. The format is functional. As to conditions: Homo sapiens.
The nature of assay [7]: viability of uninfected HEp-2 cells – cell-based, HTS, cytotoxicity control for RSV inhibitor project, dose response (AID 2410). The following applies: human respiratory syncytial virus. The format is functional.
Assay [8] concerns the target SUMO-activating enzyme (Homo sapiens, UniProt Q9UBT2). Put plainly: blockers of UBC9-mediated SUMO conjugation – biochemical, AlphaScreen, SUMOylation inhibitor project, confirmation (AID 2018). The format is functional.
Assay [9] deals with T4, Leucine aminopeptidase (Plasmodium falciparum 3D7, UniProt Q8IL11).
T4 sequence (Q8IL11 whole entry): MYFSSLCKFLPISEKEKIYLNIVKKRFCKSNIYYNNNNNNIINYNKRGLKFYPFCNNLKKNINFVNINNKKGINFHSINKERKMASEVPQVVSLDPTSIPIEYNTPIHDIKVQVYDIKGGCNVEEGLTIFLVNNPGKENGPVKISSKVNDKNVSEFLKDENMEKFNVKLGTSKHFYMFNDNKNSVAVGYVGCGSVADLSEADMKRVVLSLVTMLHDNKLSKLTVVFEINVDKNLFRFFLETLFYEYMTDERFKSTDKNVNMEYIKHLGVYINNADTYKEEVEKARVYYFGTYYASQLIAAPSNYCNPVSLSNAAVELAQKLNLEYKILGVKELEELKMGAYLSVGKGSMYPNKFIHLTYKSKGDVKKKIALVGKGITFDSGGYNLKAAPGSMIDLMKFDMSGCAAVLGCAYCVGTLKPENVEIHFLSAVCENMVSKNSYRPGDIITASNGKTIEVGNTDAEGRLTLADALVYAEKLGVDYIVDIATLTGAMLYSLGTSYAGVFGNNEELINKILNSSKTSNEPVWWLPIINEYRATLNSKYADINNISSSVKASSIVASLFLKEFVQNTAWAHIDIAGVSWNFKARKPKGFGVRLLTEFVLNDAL
Put plainly: P. falciparum M17LAP inhibitors, primary screen, biochemical, fluorogenic H-Leu-NHMec substrate, 1536-well (AID 1619). The format is functional.

Assay [10] has as its target T5, E3 ubiquitin-protein ligase XIAP (Homo sapiens, UniProt P98170). Kind of assay: Counter Screen using XIAP-Bir3 of the Chemical Antagonists of IAP-family anti-apoptotic proteins confirmation assay. [Related pubchem assays (depositor defined):AID1018, AID1449, AID1513, AID1638, AID1749, AID1750, AID488957, AID488963].
Assay [11] deals with T5, E3 ubiquitin-protein ligase XIAP. Kind of assay: Chemical Antagonists of IAP-family anti-apoptotic proteins confirmation. [Related pubchem assays (depositor defined):AID1018, AID1513, AID1514, AID1638, AID1749, AID1750, AID488957, AID488963].
Assay [12] has as its target G-protein coupled receptor 55 (Homo sapiens, UniProt Q9Y2T6). Kind of assay: SAR Analysis of Selective Antagonists of GPR55 using an Image-Based Assay - Set 4. [Related pubchem assays (depositor defined):AID2013, AID2026]. The format is functional.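 Note: antagonism of response to 5 µM lysophosphatidylinositol agonist.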
For assay [13], the target named is T6, Cannabinoid receptor 2 (Homo sapiens, UniProt P34972). Put plainly: SAR analysis of antagonists of the Cannabinoid Receptor 2 using an Image-Based Assay - Set 3. [Related pubchem assays (depositor defined):AID2013, AID2026]. Format: functional.
In assay [14] the target is Induced myeloid leukemia cell differentiation protein Mcl-1 (Homo sapiens, UniProt Q07820). The format is functional.
In assay [15] the target is T7, G-protein coupled receptor 35 (Homo sapiens, UniProt Q9HC97). Kind of assay: SAR analysis of Agonists of the GPR35 Receptor using an Image-Based Assay - Set 4. [Related pubchem assays (depositor defined):AID2013, AID2026]. The format is functional.
Assay [16] deals with T8, Cannabinoid receptor 1 (Homo sapiens, UniProt P21554). Kind of assay: SAR analysis of agonists of the Cannabinoid Receptor 1 using an Image-Based Assay - Set 4. [Related pubchem assays (depositor defined):AID2013, AID2026]. The format is functional.
Assay [17] addresses T6, Cannabinoid receptor 2. Kind of assay: SAR analysis of agonists of the Cannabinoid Receptor 2 using an Image-Based Assay - Set 3. [Related pubchem assays (depositor defined):AID2013, AID2026]. The format is functional.
Assay [18] concerns the target T9, Probable nicotinate-nucleotide adenylyltransferase (Staphylococcus aureus (strain N315), UniProt P65502). The format is functional, Staphylococcus aureus subsp. aureus N315. The following applies: read-out: IC50_Mean.
In assay [19] the target is T8, Cannabinoid receptor 1. Kind of assay: SAR analysis of antagonists of the Cannabinoid Receptor 1 using an Image-Based Assay - Set 4. [Related pubchem assays (depositor defined):AID2013, AID2026]. The format is functional.
In assay [20] the target is T7, G-protein coupled receptor 35. Kind of assay: SAR analysis of Antagonists of the GPR35 Receptor using an Image-Based Assay - Set 6. [Related pubchem assays (depositor defined):AID2013, AID2026]. The format is functional.
Assay [21] deals with T9, Probable nicotinate-nucleotide adenylyltransferase. The format is functional, Staphylococcus aureus subsp. aureus N315.
Assay [22] deals with T10, Runt-related transcription factor 1/Core-binding factor subunit beta (Homo sapiens, UniProt Q01196+Q13951). Kind of assay: disruptors of Runt domain/CBFb-SMMHC interaction – biochemical, FRET, Cerulean-Runt, Venus-CBFb-SMMHC, uHTS, […] (AID 1434). Format: protein assay.
Assay [23] has as its target T10, Runt-related transcription factor 1/Core-binding factor subunit beta. Kind of assay: Runt domain/CBFb-SMMHC interaction disruptors – biochemical, TR-FRET (AID 1438). The format is protein assay.

Activity calls are given as the source filed them. Bounds are passed on as bounds.
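Throughout, for IC50 Mean: confirmatory dose-response retesting of NadD inhibitor hits first found in an ultra-high-throughput screen.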

T5 sequence (P98170 whole entry): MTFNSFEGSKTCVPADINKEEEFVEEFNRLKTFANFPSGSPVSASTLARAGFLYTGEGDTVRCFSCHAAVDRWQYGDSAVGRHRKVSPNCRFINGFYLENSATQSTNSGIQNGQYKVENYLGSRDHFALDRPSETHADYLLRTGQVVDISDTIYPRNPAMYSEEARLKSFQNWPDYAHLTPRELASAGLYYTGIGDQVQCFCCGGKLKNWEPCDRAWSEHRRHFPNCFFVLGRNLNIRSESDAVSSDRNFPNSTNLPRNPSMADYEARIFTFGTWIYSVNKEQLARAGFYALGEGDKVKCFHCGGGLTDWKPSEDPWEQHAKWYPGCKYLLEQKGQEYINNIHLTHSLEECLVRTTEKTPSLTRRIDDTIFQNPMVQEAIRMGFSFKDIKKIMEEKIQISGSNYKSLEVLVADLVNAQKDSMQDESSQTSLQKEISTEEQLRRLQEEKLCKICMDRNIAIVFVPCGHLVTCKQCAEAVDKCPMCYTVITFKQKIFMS
T1 sequence (P49327 whole entry): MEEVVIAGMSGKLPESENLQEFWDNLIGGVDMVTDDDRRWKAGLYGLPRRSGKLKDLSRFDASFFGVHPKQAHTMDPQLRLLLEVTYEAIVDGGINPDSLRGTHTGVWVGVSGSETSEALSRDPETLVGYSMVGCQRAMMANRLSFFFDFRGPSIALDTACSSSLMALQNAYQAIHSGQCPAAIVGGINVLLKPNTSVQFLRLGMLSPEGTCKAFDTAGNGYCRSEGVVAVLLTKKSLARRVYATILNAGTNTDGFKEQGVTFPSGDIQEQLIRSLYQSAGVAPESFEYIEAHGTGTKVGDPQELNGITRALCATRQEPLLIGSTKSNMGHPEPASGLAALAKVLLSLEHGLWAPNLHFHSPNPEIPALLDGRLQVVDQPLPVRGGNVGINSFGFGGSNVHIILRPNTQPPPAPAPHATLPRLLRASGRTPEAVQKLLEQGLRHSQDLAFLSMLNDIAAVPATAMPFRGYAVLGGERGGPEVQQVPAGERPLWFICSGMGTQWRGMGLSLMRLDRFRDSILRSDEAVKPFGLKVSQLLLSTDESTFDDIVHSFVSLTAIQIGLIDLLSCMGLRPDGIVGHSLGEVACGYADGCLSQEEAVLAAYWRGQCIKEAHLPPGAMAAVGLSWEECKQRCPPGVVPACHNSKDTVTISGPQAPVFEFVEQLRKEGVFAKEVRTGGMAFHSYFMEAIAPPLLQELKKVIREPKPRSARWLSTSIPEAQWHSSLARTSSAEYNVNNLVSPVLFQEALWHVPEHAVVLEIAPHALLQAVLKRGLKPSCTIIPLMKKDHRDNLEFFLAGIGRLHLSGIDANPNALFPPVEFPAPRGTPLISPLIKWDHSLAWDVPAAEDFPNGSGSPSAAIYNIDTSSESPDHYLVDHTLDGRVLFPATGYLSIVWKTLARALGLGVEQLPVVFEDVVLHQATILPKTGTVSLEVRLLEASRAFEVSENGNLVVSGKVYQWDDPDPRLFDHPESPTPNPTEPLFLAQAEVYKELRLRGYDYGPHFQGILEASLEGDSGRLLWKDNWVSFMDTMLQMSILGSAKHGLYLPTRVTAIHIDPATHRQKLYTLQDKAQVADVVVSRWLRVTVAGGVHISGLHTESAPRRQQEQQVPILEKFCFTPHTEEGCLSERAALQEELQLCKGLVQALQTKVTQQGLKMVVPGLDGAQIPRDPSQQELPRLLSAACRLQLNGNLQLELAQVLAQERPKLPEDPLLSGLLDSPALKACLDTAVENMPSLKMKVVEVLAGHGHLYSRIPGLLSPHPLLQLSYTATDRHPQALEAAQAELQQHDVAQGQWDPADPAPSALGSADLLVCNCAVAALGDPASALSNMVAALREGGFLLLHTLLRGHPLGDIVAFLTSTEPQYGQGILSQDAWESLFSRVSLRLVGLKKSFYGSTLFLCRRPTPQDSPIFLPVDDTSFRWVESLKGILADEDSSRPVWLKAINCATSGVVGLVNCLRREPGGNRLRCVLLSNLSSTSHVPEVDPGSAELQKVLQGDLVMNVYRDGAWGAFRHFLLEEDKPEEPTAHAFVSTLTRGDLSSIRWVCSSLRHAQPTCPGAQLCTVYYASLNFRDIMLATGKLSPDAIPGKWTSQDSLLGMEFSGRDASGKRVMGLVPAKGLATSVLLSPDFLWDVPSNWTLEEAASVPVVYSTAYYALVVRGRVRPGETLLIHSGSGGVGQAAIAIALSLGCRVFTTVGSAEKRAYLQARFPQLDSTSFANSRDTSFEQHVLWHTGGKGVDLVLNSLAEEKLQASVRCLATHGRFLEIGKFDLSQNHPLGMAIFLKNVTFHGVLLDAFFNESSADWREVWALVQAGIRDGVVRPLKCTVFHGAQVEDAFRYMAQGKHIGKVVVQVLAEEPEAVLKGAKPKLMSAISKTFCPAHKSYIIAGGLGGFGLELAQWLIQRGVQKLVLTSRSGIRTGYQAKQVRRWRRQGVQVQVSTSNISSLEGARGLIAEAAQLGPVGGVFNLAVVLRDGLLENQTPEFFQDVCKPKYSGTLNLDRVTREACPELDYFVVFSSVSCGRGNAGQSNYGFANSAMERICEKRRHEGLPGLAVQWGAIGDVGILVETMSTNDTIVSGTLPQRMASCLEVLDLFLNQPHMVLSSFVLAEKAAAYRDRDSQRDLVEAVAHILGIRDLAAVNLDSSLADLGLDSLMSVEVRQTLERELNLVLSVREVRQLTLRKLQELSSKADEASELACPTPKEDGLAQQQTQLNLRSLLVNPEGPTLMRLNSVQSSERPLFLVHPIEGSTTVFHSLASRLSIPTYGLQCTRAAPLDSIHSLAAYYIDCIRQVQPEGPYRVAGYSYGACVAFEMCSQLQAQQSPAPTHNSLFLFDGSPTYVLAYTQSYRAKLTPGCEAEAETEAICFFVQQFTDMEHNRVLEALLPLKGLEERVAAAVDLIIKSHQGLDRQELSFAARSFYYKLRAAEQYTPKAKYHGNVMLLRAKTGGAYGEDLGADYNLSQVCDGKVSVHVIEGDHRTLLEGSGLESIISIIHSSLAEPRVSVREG
T10 sequence (Q01196 whole entry, the tested form may be a part): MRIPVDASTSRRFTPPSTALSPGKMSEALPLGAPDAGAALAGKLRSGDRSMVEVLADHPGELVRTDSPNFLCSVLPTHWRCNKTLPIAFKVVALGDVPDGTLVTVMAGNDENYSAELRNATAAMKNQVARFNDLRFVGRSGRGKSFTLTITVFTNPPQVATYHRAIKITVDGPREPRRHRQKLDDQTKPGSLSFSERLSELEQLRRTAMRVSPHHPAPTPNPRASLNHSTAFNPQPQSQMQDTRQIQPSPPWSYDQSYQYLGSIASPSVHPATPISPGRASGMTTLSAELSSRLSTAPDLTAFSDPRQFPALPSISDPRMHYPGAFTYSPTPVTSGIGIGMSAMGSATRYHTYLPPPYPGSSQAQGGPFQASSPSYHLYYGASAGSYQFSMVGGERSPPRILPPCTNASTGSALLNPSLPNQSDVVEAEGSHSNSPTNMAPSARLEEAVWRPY
T10 sequence (Q13951 whole entry, the tested form may be a part): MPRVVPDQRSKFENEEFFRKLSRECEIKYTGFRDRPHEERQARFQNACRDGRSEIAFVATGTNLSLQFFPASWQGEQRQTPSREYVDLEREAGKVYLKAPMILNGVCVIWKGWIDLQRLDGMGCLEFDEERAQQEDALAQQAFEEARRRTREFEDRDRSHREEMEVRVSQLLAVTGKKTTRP
T6 sequence (P34972 whole entry): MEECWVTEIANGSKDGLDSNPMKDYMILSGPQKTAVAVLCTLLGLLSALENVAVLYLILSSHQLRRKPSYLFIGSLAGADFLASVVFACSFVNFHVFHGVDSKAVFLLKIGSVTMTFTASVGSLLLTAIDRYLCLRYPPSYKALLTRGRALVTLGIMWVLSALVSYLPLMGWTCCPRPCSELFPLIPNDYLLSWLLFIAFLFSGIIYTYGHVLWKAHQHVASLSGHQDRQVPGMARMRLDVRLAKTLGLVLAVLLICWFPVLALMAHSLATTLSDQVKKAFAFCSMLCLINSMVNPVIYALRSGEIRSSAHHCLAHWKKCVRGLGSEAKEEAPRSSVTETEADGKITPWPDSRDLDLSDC
T9 sequence (P65502 whole entry): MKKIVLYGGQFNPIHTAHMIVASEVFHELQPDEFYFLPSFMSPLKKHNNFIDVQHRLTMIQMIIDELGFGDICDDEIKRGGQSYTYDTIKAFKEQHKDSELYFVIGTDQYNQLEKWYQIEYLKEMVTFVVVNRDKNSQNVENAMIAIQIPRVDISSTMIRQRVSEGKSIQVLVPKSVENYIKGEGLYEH
T8 sequence (P21554 whole entry): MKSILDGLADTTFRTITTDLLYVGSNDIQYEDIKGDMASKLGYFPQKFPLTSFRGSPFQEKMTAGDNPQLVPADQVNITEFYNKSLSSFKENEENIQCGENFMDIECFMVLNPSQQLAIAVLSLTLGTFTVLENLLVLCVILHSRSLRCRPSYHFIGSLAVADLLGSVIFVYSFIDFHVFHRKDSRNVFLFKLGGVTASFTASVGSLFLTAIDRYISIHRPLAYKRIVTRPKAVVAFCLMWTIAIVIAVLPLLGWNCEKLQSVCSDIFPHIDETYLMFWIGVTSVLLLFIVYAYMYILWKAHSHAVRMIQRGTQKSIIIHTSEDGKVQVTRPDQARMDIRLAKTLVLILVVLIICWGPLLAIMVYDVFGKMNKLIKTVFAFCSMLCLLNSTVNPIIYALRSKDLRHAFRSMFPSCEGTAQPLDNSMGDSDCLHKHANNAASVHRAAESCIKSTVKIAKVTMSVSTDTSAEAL
T7 sequence (Q9HC97 whole entry): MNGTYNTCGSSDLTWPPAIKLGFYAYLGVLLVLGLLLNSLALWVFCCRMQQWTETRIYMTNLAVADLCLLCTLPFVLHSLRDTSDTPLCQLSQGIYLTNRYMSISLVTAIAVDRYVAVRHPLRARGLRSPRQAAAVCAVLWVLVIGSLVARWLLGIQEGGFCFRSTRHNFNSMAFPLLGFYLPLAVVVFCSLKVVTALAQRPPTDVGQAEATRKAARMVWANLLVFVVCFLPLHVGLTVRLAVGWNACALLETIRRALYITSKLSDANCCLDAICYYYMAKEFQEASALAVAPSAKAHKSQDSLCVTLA

Consider `CC(NC(=O)COC(=O)c1cc(NS(=O)(=O)c2ccc(Cl)c([N+](=O)[O-])c2)ccc1O)C1CC2CCC1C2` (centres undefined), for which the values for the IC50 in [1] and in [3] were 11.1 µM (active) and 11.7 µM (active), respectively. In [2], the EC50 was 3.7 µM (active). In addition, the CC50 in assay [4] was 32.7 µM (active). For the same compound, the concentration at half-maximal activity (AC50) in assay [5] is 2.01 µM (active); in assay [6], 3.17 µM (active).

Regarding `CCCCCCC#Cc1cncc(C(=O)NNC(=O)Nc2cc(Cl)cc(Cl)c2)c1`, the CC50 in assay [7] was 9.35 µM (active). In [8], the IC50 was 59.8 µM (active).

In the case of `O=C(O)[C@H](Cc1ccccc1)N1Cc2ccccc2C1=O`, the IC50 in assay [9] is 6.47 µM (active); in assay [10], > 200 µM (inactive); in assay [11] it was 131 µM (inactive).

In the case of `O=C(Nc1ccc(S(=O)(=O)Nc2nccs2)cc1)c1cc(-c2ccncc2)nc2ccccc12`, the IC50 is > 32 µM (inactive) in assay [12]; > 32 µM (inactive) in assay [13]; 1.64 µM (active) in assay [14]; 21.6 µM (active) in [18]; 2.23 µM (active) in assay [19]; > 32 µM (inactive) in [20]. The IC50 in assay [21] was 6.6 µM (active). The EC50 in [15], in assay [16] and in assay [17] was > 32 µM (inactive) in each case.

For the compound `Cc1ccc(Cn2c(=N)c(C(=O)NCc3ccco3)cc3c(=O)n4ccccc4nc32)cc1`, the IC50 is 3.14 µM (active) in assay [14], 0.475 µM (active) in assay [22] and 15.3 µM (active) in [23].
